Test results: patent EP2876156A1 (COMMISSARIAT A L'ENERGIE ATOMIQUE ET AUX ENERGIES …, priority 2013, dated 2015)

Assays:
[1] = tested on: Decarboxyl (or Decarboxy2); test: Enzymatic hydroxylation followed by decarboxylation to hydroxylated diamino alkanes, conversion by HPLC (protocol A); assay type: biochemical, Flavobacterium johnsoniae; Chitinophaga pinensis; conditions: L-lysine or L-ornithine hydroxylated (part V conditions), then PLP, DTT and Decarboxy1 (or Decarboxy2) added, 18h at 37 °C; HPLC after Fmoc-Cl derivatization
Method: The conversions were determined by HPLC after Fmoc-Cl derivatization (protocol A). Atlantis T3 (3µm 4.5*150 mm) at 35°C with the gradient 50-86% eluent B (MeCN + 0.1% TFA) and eluent A (H2O + 0.1% TFA) in 20 min at 1 mL/min […].
L-lysine was converted into (3S)-3-hydroxy-L-lysine by ENZ1 in conditions described in part V.
30 µL pyridoxal 5'-phosphate (PLP) 10 mM, 3 µL dithiothreitol (DTT) 100 mM and Decarboxyl (or Decarboxy2) 50 µL 1.5 mg/mL were then added in the reaction medium. The mixture was stirred (1000 rpm) for 18h at 37 °C.
Lysine was converted into (4R)-4-hydroxy-L-lysine in conditions described in part V 30 µL PLP 10 mM, 3 µL DTT 100 mM and Decarboxyl(or Decarboxy2) 50 µL 1.5 mg/mL were then added in the reaction medium to perform decarboxylation. The mixture was stirred (1000 rpm) for 18h at 37 °C.
The mixture was stirred (1000 rpm) for 18h at 37 °C.
Lysine was converted into (3R,4R)-3,4-dihydroxy-L-lysine in conditions described in part V, by cascade reaction with ENZ1 (SEQ NO:1) and ENZ2 (SEQ NO:2).
The volume of the reaction medium was reduced to 180 µL using a speedvac. 26 µL PLP 10 mM, 2.6 µL DTT 100 mM and Decarboxyl (or Decarboxy2) 50 µL (lysat) were then added to perform decarboxylation. The mixture was stirred (1000 rpm) for 18h at 37 °C.

ENZ6 (SEQ ID NO:10) = target: T1, ENZ6 (SEQ ID NO:10) (Flavobacterium sp., UniProt J3BZS6); test: Hydroxylation capability, HPLC analysis of reaction media after derivatization; assay type: biochemical
T1 construct: His6 (hexahistidine, inserted after the initial methionine) (N); made in house; host or cells: E. coli BL21(DE3) plysE
Method: (§1) Enzymes (0.08 mg/mL) were screened against substrates (molar ratio α-ketoglutarate/substrate 15/10) in Hepes buffer 50 mM pH 7,5, with Mohr's salt at 1mM and without sodium ascorbate, at room temperature for three hours. The potential conversions of the substrates were determined by HPLC after Fmoc-Cl derivatization as section III here above.
(§2) The hydroxylation capability of two other enzymes, namely ENZ6 (SEQ ID NO:10) and ENZ5 (SEQ ID NO:9) were also assessed. The amino sequence of ENZ6 has 79% of amino acid identity with SEQ ID NO:2 of ENZ2 while the amino sequence of ENZ5 has 72% of amino acid identity with SEQ ID NO:3 of ENZ3. […] As shown in part VI, ENZ6 and ENZ5 provide (4R)-hydroxy-L-lysine from L-lysine similarly to ENZ2 and ENZ3. Thus ENZ6 and ENZ5 are likely to have the same substrate selectivity and provide similar products as ENZ2 and ENZ3.

ENZ5 (SEQ ID NO:9) = target: T2, ENZ5 (SEQ ID NO:9) (Niastella koreensis, UniProt G8T8D0); test: as above; assay type: biochemical
T2 construct: His6 (hexahistidine, inserted after the initial methionine) (N); made in house; host or cells: E. coli BL21(DE3) plysE
T2 sequence (G8T8D0 1-371): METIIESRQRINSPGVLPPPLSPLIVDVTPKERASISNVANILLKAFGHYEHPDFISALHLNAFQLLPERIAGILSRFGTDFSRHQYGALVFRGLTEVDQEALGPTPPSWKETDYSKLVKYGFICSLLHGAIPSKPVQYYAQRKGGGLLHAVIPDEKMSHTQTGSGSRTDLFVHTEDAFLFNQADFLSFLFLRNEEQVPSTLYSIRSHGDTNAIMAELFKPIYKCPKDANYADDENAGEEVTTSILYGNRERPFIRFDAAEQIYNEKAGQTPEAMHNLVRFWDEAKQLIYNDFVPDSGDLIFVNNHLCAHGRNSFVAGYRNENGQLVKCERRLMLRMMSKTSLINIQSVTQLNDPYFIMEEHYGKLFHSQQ
Method: as §1, §2

ENZ4 SEQ ID NO:4 [2] = target: T3, ENZ4 SEQ ID NO:4 (Catenulispora acidiphila, UniProt C7Q942); test: Enzymatic hydroxylation of L-ornithine and L-arginine, 10 mL scale, conversion by HPLC; assay type: biochemical; conditions: ENZ4 0.595 mg/mL, without sodium ascorbate, room temperature, 18h; HPLC after FDAA derivatization (protocol B)
T3 construct: His6 (hexahistidine, inserted after the initial methionine) (N); made in house; host or cells: E. coli BL21(DE3) plysE
T3 sequence (C7Q942 1-343): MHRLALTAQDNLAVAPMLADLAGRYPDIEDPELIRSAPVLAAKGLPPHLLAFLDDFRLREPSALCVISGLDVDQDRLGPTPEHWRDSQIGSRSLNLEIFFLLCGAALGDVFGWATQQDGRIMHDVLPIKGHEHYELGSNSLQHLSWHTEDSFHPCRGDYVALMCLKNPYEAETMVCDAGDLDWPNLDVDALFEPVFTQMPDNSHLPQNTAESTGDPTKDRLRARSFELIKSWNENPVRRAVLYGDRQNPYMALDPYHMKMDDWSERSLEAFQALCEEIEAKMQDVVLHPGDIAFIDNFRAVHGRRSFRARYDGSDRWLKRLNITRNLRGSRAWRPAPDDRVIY
Method: 70 µL of the aqueous phase were withdrawn, diluted with 70 µL of acetonitrile and injected into the HPLC. […]
(§3) Conditions for HPLC analysis: Atlantis® T3 (3 µm 4.5*150 mm) at 35°C with the gradient 50-86% eluent B (MeCN + 0.1% TFA) and eluent A (H2O + 0.1% TFA) in 20 min at 1 mL/min.

ENZ3 SEQ ID NO:3 = target: T4, ENZ3 SEQ ID NO:3 (Chitinophaga pinensis, UniProt C7PLM6); assay type: biochemical; conditions: enzyme 0.08 mg/mL, molar ratio α-ketoglutarate/substrate 15/10, Hepes buffer 50 mM pH 7,5, Mohr's salt 1mM, without sodium ascorbate, room temperature, three hours
T4 construct: His6 (hexahistidine, inserted after the initial methionine) (N); made in house; host or cells: E. coli BL21(DE3) plysE
T4 sequence (C7PLM6 1-382): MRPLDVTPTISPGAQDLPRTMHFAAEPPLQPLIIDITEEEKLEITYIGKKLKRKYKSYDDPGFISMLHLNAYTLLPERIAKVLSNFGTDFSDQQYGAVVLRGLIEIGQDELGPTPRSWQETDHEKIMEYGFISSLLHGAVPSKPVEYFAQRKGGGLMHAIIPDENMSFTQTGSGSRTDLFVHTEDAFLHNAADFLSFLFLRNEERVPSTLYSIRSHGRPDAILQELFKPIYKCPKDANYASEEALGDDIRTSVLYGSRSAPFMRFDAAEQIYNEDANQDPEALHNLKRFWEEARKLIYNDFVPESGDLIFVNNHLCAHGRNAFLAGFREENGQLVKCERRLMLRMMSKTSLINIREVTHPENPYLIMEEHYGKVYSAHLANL
Method: (§4) Enzymatic reaction medium (0.2 µmole, leq.), borate buffer 0,2M pH 7.7 (80 µL) and Fmoc-Cl solution7.5 mM in acetone (100 µL, 0.75 µmole, 3.75 eq) were hand shaked in a closed 1.50 mL eppendorf for one minute. The aqueous layer was extracted with petroleum ether (3*1 mL) to eliminate excess of Fmoc-Cl. 70 µL of the aqueous phase were withdrawn, diluted with 70 µL of acetonitrile and injected into the HPLC. For substrates with two amine functions, 100 µL of Fmoc-Cl solution 15 mM were used.
as §3, §1

ENZ2 SEQ ID NO:2 = target: T5, ENZ2 SEQ ID NO:2 (Flavobacterium johnsoniae, UniProt A5FF23); assay type: biochemical; conditions: enzyme 0.08 mg/mL, molar ratio α-ketoglutarate/substrate 15/10, Hepes buffer 50 mM pH 7,5, Mohr's salt 1mM, without sodium ascorbate, room temperature, three hours
T5 construct: His6 (hexahistidine, inserted after the initial methionine) (N); made in house; host or cells: E. coli BL21(DE3) plysE
T5 sequence (A5FF23 1-370): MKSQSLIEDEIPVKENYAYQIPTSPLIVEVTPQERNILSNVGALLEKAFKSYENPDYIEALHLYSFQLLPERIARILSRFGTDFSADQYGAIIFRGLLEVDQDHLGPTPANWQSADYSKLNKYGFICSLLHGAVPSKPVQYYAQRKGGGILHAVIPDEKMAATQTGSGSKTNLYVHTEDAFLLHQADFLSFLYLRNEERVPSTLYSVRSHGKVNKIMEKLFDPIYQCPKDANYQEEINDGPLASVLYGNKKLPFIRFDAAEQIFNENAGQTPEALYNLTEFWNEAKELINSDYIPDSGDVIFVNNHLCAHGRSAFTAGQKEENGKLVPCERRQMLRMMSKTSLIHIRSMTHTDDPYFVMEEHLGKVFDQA
Method: as §4, §3, §1

ENZ4 SEQ ID NO:4 [3] = target: T3, ENZ4 SEQ ID NO:4; test: Substrate selectivity screening of hydroxylase (conversion by HPLC after Fmoc-Cl derivatization); assay type: biochemical; conditions: enzyme 0.08 mg/mL, molar ratio α-ketoglutarate/substrate 15/10, Hepes buffer 50 mM pH 7,5, Mohr's salt 1mM, without sodium ascorbate, room temperature, three hours
Method: as §4, §3, §1

ENZ1 SEQ ID N°1 = target: T6, ENZ1 SEQ ID N°1 (Catenulispora acidiphila, UniProt C7QJ42); test: as above; assay type: biochemical; conditions: enzyme 0.08 mg/mL, molar ratio α-ketoglutarate/substrate 15/10, Hepes buffer 50 mM pH 7,5, Mohr's salt 1mM, without sodium ascorbate, room temperature, three hours
T6 construct: His6 (hexahistidine, inserted after the initial methionine) (N); made in house; host or cells: E. coli BL21(DE3) plysE
T6 sequence (C7QJ42 1-358): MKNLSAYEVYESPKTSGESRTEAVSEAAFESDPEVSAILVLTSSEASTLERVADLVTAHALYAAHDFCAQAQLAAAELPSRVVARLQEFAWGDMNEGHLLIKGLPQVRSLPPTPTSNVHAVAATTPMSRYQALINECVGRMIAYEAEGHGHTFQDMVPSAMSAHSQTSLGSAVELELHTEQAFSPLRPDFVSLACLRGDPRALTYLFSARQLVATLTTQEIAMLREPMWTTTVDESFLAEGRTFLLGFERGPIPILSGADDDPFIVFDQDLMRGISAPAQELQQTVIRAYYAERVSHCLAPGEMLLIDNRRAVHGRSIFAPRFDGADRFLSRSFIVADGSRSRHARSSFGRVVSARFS
Method: as §4, §3, §1

T1 sequence (J3BZS6 whole entry): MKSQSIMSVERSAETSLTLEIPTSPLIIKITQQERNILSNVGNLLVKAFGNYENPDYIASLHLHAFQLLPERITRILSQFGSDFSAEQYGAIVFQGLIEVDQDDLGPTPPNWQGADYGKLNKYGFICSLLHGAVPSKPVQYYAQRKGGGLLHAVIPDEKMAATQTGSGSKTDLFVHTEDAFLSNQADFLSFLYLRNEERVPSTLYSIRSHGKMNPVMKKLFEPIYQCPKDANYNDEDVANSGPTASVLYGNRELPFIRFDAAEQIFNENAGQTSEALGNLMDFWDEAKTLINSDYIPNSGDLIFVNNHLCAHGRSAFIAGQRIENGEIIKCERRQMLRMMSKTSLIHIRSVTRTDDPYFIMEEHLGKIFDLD

NCCC[C@H](O)CN [(2S)-1,5-diamino-2-pentanol]
Conversion [1]: > 95%

NCCC[C@H](N)C(=O)O [L-ornithine]
hydroxylation capability of ENZ6 (ENZ6 (SEQ ID NO:10)): not able to convert | hydroxylation capability of ENZ5 (ENZ5 (SEQ ID NO:9)): not able to convert

NCC[C@@H](O)[C@H](O)CN [(2R,3R)-1,5-diamino-2,3-pentanediol]
Conversion [1]: > 90%

N=C(N)NCCC[C@H](N)C(=O)O [L-arginine]
conversion of L-arginine into hydroxylated product (ENZ4 SEQ ID NO:4 [2]): 50% | potential conversions of the substrates, ENZ3 SEQ ID NO:3 (ENZ3 SEQ ID NO:3): negative | potential conversions of the substrates, ENZ2 SEQ ID NO:2 (ENZ2 SEQ ID NO:2): negative | potential conversions of the substrates, ENZ4 SEQ ID NO:4 (ENZ4 SEQ ID NO:4 [3]): positive | potential conversions of the substrates, ENZ1 SEQ ID N°1 (ENZ1 SEQ ID N°1): negative

NCCC(O)CCN [1,5-diamino-3-pentanol]
Conversion [1]: 100%

NCC[C@H](O)CN [(2S)-1,4-diamino-2-butanol]
Conversion [1]: 50%
